Results on one compound are retold here after US9527859B2, “Amidopyridine derivative and use thereof” (Mitsubishi Tanabe Pharma Corporation, priority 2012, dated 2016).

The data set can be described thus: Single dose toxicity study in dogs. As to conditions: beagle dogs, single oral dose 10, 30, 100 mg/kg. It is filed as in vivo, dog. As to the method: Single Dose Toxicity Study in Dogs
The study was carried out with TOYO beagles (KITAYAMA LABES CO., LTD., Hongou farm), four dogs per each sex. They were 5-month old on arrival at testing facility, and were 10-month old when started to be administered. Basal diet was 300 g/day, DS-A (Oriental Yeast Co., Ltd.), and drinking water was tap water. Allocation to the groups was carried out so that an animal number was allocated in order of quarantine number for males and females respectively whose clinical signs and results of clinical laboratory test were considered to be normal.
As to a dosing suspension, 0.5 w/v % HPMC aqueous solution was used as a vehicle, the required amounts of test compound were pre-weighed for each dose group, and it was prepared in a specified concentration with mortar and pestleon the day of administration. Dose volume was 5 mL/kg (calculated on the basis of body weight measured on the day of administration). […]
A clinical sign was observed before administration and during TK blood sampling on the day of administration, and once in the morning every day on the day other than administration. Body weight was measured in the pre-dosing term (−5th day, −1st day), on the day of administration and on the next day after administration.
Feeding was carried out every day, and food consumption (g/day) was calculated from the remaining food in the next morning after feeding. […]

Turning to `Cc1c(C(=O)Nc2cnc(N3CCC(O)CC3)c(C3CC3)c2)cnn1-c1ccc(Cl)cc1` [Example 39, 1-(4-chlorophenyl)-N-[5-cyclopropyl-6-(4-hydroxypiperidin-1-yl)pyridin-3-yl]-5-methyl-1H-pyrazole-4-carboxamide], the “Changes caused by administration (clinical signs, body weight, food consumption, hematology, blood chemistry incl. ALT, AST, TBil)” value is on record as “no changes caused by administration were found in any doses”.
